The values that follow come from patent US12071443B2, “Prolyl hydroxylase domain-containing protein (PHD) inhibitors and uses thereof” (Insilico Medicine IP Limited, priority 2021, dated 2024).

The target of one assay is PHD2 (Homo sapiens, UniProt Q9GZT9). The assay can be described thus: PHD2 enzymatic assay (AlphaScreen). The following applies: PHD2 enzyme, AlphaScreen, IC50 from % inhibition; read-out: PHD2. It is filed as biochemical.
Assay [1] has as its system Caco2-HIF1α-HiBiT-clone-1 cells. Briefly: Caco-2 HIF1α-HiBiT assay. Particulars: Homo sapiens, Caco-2; Caco2-HIF1α-HiBiT-clone-1 cells, 6 h incubation, luminescence; read-out: Caco2-HIF1α-HiBit assay - EC50. It counts as cell-based. A general note: The HiBiT peptide binds its large partner to form an active luciferase.

In general, EC50 refers to the concentration that produces a half-maximal response.

Sequence of PHD2 (Q9GZT9 whole entry): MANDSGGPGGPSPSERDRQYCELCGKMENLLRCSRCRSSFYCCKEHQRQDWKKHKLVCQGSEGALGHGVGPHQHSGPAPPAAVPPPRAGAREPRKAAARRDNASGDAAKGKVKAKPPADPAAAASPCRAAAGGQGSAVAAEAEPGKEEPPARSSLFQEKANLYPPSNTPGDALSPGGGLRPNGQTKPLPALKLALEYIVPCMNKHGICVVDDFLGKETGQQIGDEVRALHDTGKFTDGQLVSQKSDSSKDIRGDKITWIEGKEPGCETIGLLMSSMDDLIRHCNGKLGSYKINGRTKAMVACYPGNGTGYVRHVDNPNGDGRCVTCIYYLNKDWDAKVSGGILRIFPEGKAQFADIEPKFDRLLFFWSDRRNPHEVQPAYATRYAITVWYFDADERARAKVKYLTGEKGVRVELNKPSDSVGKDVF

Regarding `CN1CCN(c2ccc3c(O)c(C(=O)NCc4ccc(C#N)cc4Cl)ncc3n2)CC1=O` [Example 19], the IC50 on PHD2 lay within 0.005 to 0.02 µM. Further, in assay [1], the EC50 lay in the range of 10 to 100 µM.
For `N#Cc1ccc(CNC(=O)c2ncc3nc(N4CCN(C(=O)CCO)CC4)ccc3c2O)cn1` [Example 72, N-((6-cyanopyridin-3-yl)methyl)-5-hydroxy-2-(4-(3-hydroxypropanoyl)piperazin-1-yl)-1,7-naphthyridine-6-carboxamide] the same measures were under 0.005 µM and 5 to 7.5 µM.
As to `CO[C@@H]1CCN(c2ccc3c(O)c(C(=O)NCc4ccc(C#N)nc4)ncc3n2)C1` [Example 27], the IC50 at PHD2 is under 0.005 µM. Besides, the EC50 in assay [1] was under 2.5 µM.
As for `CC(=O)N1CCN(c2ccc3c(O)c(C(=O)NCc4ccc(C#N)nc4)ncc3n2)C[C@@H]1CO` [Example 46, (R)-2-(4-acetyl-3-(hydroxymethyl)piperazin-1-yl)-N-((6-cyanopyridin-3-yl)methyl)-5-hydroxy-1,7-naphthyridine-6-carboxamide], the IC50 at PHD2 is under 0.005 µM. For the same compound, the EC50 in assay [1] is 10 to 100 µM.
With `COC(=O)N1CCN(c2ccc3c(O)c(C(=O)NCc4ccc(C#N)nc4)ncc3n2)CC1` [Example 120], the IC50 at PHD2 is under 0.005 µM. In addition, in assay [1], the EC50 was in the range of 10 to 100 µM.
For the compound `COC(=O)CC1CN(c2ccc3c(O)c(C(=O)NCc4ccc(C#N)nc4)ncc3n2)C1` [Example 152], the IC50 at PHD2 was under 0.005 µM. For the same compound, in assay [1], the half-maximal effective concentration (EC50) was in the range of 2.5 to 5 µM.
For the compound `CCOC(=O)C1CCN(c2ccc3c(O)c(C(=O)NCc4ccc(C#N)nc4)ncc3n2)CC1` [Example 94], the IC50 on PHD2 was under 0.005 µM. For the same compound, the EC50 in assay [1] is 7.5 to 10 µM.
As for `N#Cc1ccc(CNC(=O)c2ncc3nc(N4CC[C@H](N)C4)ccc3c2O)cn1` [Example 126, (S)-2-(3-aminopyrrolidin-1-yl)-N-((6-cyanopyridin-3-yl)methyl)-5-hydroxy-1,7-naphthyridine-6-carboxamide], the IC50 at PHD2 is under 0.005 µM. For the same compound, the EC50 in assay [1] was in the range of 10 to 100 µM.
For `N#Cc1ccc(CNC(=O)c2ncc3nc(N4CCOC(=O)C4)ccc3c2O)cn1` [Example 85, N-((6-cyanopyridin-3-yl)methyl)-5-hydroxy-2-(2-oxomorpholino)-1,7-naphthyridine-6-carboxamide], on PHD2, the IC50 is under 0.005 µM. In assay [1], the EC50 was in the range of 10 to 100 µM.
On to `N#Cc1ccc(CNC(=O)c2ncc3nc(N4CCN(C5CC5)[C@@H](CO)C4)ccc3c2O)c(Cl)c1` [Example 70], for which the IC50 on PHD2 was 0.005 to 0.02 µM. The EC50 in assay [1] lay within 2.5 to 5 µM.
For `N#Cc1ccc(CNC(=O)c2ncc3nc(N4CCN(C5CC5)CC4)ccc3c2O)c(Cl)c1` [Example 4] the same measures were 0.005 to 0.02 µM and 10 to 100 µM.
